The subject of assay [1] is OT-1 CD8+ T cells with SIINFEKL-loaded MC38 tumor cells. As to the kind of experiment: Murine cytotoxic T lymphocyte assay (IFN-γ, OT-1 CTL with MC38 tumor cells). It is filed as cell-based, mouse. The settings on record: read-out: msCTL INFg IC50. From the text: 5. Murine Cytotoxic T Lymphocyte Assay
An antigen-specific cytolytic T-cell (CTL) assay was developed to evaluate functionally the ability of DGKα and DGKζ inhibitors to enhance effector T cell mediated tumor cell killing activity. CD8+ T-cells isolated from the OT-1 transgenic mouse recognize antigen presenting cells, MC38, that present the ovalbumin derived peptide […]. Recognition of the cognate antigen initiates the cytolytic activity of the OT-1 antigen-specific CD8+ T cells.
Functional CTL cells were generated as follows: OT-1 splenocytes from 8-12 week old mice were isolated and expanded in the presence of the […] peptide at 1 μg/mL and mIL2 at 10 U/mL. After three days, fresh media with […] was added. On day 5 of the expansion, the CD8+ T cells were isolated and ready for use. Activated CTL cells may be stored frozen for 6 months. Separately, one million MC38 tumor cells were pulsed with 1 μg/mL of […]-OVA peptide for 3 hours at 37° C. The cells were washed (3×) with fresh media to remove excess peptide. Finally, CTL cells that were pretreated with DGK inhibitors for 1 hour in a 96-well U bottom plate were combined with the antigen loaded MC38 tumor cells at a 1:10 ratio. The cells were then spun at 700 rpm for 5 min and placed in an incubator overnight at 37° C. After 24 hours, the supernatant was collected for analysis of IFN-γ cytokine levels by AlphaLisa purchased from Perkin Elmer.

In assay [2] the target is T1, human DGKα (Homo sapiens, UniProt P23743).
T1 construct: TVMV protease cleavage site (C); Hexa-His (C); made in house; host or cells: Sf9 insect cells (baculovirus, Bac-to-Bac)
T1 sequence (P23743 with tags, fused parts or gaps): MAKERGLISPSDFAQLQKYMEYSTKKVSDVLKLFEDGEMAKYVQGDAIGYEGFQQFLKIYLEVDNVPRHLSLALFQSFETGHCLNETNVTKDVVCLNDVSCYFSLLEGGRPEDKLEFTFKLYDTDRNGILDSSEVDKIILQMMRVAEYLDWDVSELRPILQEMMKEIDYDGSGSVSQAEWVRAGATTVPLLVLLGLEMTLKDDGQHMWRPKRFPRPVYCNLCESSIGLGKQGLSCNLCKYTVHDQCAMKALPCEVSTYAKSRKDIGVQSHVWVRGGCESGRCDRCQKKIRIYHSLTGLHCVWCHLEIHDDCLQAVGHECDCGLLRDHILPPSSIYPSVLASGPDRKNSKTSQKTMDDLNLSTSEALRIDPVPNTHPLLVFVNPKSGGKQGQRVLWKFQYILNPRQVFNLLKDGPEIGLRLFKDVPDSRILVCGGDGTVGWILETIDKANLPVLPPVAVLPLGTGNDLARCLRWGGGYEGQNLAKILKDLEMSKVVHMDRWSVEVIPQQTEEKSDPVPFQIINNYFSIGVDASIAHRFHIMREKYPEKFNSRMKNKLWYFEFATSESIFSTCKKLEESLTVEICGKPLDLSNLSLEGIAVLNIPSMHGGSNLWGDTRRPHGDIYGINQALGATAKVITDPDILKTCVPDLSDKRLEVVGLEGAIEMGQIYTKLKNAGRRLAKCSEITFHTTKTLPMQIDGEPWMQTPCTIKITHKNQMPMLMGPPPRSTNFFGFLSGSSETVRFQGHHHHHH
As to the kind of experiment: DGKα LIPGLO assay (extruded liposome substrate), in vitro DGK inhibition. The format is biochemical. The following applies: read-out: DGKa LIPGLO IC50.

In assay [3] the target is T2, human DGKζ (Homo sapiens, UniProt Q13574).
T2 construct: TVMV protease cleavage site (C); Hexa-His (C); made in house; host or cells: Sf9 insect cells (baculovirus, Bac-to-Bac)
T2 sequence (Q13574 with tags, fused parts or gaps isoform Q13574-4): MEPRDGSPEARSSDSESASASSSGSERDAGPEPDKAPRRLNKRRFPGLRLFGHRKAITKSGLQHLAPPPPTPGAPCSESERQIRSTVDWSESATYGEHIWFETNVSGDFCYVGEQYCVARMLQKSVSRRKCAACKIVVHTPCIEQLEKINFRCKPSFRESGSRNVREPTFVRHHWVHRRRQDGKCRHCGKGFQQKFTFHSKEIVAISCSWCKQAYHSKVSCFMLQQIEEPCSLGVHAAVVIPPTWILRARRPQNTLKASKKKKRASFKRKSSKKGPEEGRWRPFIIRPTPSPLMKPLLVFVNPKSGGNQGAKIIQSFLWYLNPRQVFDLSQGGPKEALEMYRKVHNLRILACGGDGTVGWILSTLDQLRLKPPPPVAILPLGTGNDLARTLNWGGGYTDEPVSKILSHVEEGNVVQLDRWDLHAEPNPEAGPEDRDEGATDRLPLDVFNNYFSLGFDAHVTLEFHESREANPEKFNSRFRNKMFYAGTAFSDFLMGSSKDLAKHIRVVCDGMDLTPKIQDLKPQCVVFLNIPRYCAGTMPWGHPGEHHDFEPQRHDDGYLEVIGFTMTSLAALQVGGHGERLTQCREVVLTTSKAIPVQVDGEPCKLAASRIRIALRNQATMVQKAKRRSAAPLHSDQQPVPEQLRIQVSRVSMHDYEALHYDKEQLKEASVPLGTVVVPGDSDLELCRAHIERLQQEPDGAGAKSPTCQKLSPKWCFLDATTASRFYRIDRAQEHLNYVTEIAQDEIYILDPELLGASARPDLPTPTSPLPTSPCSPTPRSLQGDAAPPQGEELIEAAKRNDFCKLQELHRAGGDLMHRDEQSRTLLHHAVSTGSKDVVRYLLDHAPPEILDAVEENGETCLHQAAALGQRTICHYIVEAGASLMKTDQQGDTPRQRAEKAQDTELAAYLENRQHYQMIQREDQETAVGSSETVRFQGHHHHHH
Description: DGKζ LIPGLO assay (extruded liposome substrate), in vitro DGK inhibition. It is filed as biochemical. The following applies: read-out: DGKz LIPGLO IC50.

For assay [4], the system named is Human venous whole blood. As to the kind of experiment: Human whole blood IFN-γ assay.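 Also: blood from healthy donors exposed to compound for 1 h before stimulation with anti-CD3 and anti-CD28 at 1 µg/mL each, IFN-γ quantified in supernatant by AlphaLISA.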 The settings on record: human whole blood, read-out: INFg Whole Blood Normalized Agonist EC50. It is filed as cell-based.
Description: Human Whole Blood IFN-γ Assay
Human venous whole blood (22.5 μL per well), obtained from healthy donors, was pre-treated with compounds for one hour at 37° C. in a humidified 95% air/5% CO2 incubator. The blood was stimulated with 2.5 μL anti-human CD3 and anti-CD28 mAb at a final concentration of 1 μg/mL each for 24 hours at 37° C. IFN-γ in the supernatants was measured using AlphLISA kit (Cat # AL217).
In assay [5] the test system is naïve human CD8 T cells. As to the kind of experiment: Human CD8 T cells IFN-γ assay.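 Also: Naïve human CD8 T cells stimulated with plate-bound anti-CD3 and soluble anti-CD28, IFN-γ in supernatant quantified by AlphaLISA and converted to pg/mL.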 The format is cell-based. The settings on record: read-out: HuCD8 INFG Normalized EC50.
[6] abbreviates: naïve human CD8 T cells, anti-CD3 plus anti-CD28, 3 μM reference compound = 100% activation.
[7] abbreviates: Homo sapiens, 24 h, normalized to 3 μM reference compound with anti-CD3 plus anti-CD28 as 100% activation.
Where [8] appears, read: Homo sapiens, T-cell, 20 h, normalized to 3 μM reference compound with anti-CD3 plus anti-CD28 as 100% activation.
The mark [9] stands for this setting: normalized to 3 μM reference compound with anti-CD3 plus anti-CD28 as 100% activation.

Like-named read-outs stand apart in the source and are kept apart here.

A word on the IC50: it is the midpoint of a concentration-inhibition curve. For the compound `COC(=O)C1CN(c2c(F)c(=O)n(C)c3ccc(C#N)nc23)CCN1C(c1ccc(F)cc1)c1ccc(F)cc1` (single isomer, unassigned) [Example 75, Methyl 1-(bis(4-fluorophenyl)methyl)-4-(6-cyano-3-fluoro-1-methyl-2-oxo-1,2-dihydro-1,5-naphthyridin-4-yl)piperazine-2-carboxylate], the figures for the IC50 in assay [1], in assay [2] (liposome (LIPGLO) assay) and in assay [3] (liposome (LIPGLO) assay) were 23 nM, 990 nM and 400 nM, respectively.

With `CC(C)C(=O)C1CN(c2cc(=O)n(C)c3ccc(C#N)nc23)CCN1C(c1ccc(F)cc1)c1ccc(F)cc1` (single isomer, unassigned) [Example 87, 8-(4-(bis(4-fluorophenyl)methyl)-3-isobutyrylpiperazin-1-yl)-5-methyl-6-oxo-5,6-dihydro-1,5-naphthyridine-2-carbonitrile], the IC50 in assay [1] was 450 nM; in assay [2] (liposome (LIPGLO) assay), 28000 nM; in assay [3] (liposome (LIPGLO) assay) it was 6600 nM.

On to `Cc1ccc(C(C)N2CCN(c3c(C#N)c(=O)n(C)c4ccc(C#N)nc34)C[C@H]2C)cc1` (single isomer, unassigned) [Example 953], for which the IC50 came out at 1700 nM in assay [1] (murine CTL, IFN-γ); 1100 nM in assay [2] (DGKα liposome (LIPGLO) assay); 15000 nM in assay [3] (DGKζ liposome (LIPGLO) assay).

For the compound `C[C@@H]1CN(c2cc(=O)n(C)c3ccc(C#N)nc23)[C@@H](C)CN1C(c1ccc(F)cc1)c1ccc(F)cc1` [Example 3, 8-((2S,5R)-4-(bis(4-fluorophenyl)methyl)-2,5-dimethylpiperazin-1-yl)-5-methyl-6-oxo-5,6-dihydro-1,5-naphthyridine-2-carbonitrile], in assay [1] (Mus musculus, MC-38), the 50% inhibitory concentration (IC50) came to 70 nM.

`C[C@H]1CN(c2c(Cl)c(=O)n(C)c3ccc(C#N)nc23)CCN1C(c1ccc(F)cc1)c1ccc(F)cc1` [Example 36, (S)-8-(4-(bis(4-fluorophenyl)methyl)-3-methylpiperazin-1-yl)-7-chloro-5-methyl-6-oxo-5,6-dihydro-1,5-naphthyridine-2-carbonitrile]: in assay [1] (Mus musculus, MC-38), the IC50 came to 1200 nM.

Turning to `C[C@@H]1CN(c2c(C#N)c(=O)n(C)c3ccc(C#N)nc23)CCN1C(c1ccc(Cl)cc1)c1ccc(Cl)cc1` [Example 103, (R)-8-(4-(bis(4-chlorophenyl)methyl)-3-methylpiperazin-1-yl)-5-methyl-6-oxo-5,6-dihydro-1,5-naphthyridine-2,7-dicarbonitrile], in assay [1] (Mus musculus, MC-38), the half-maximal inhibitory concentration (IC50) amounted to 76 nM.

In the case of `C[C@@H]1CN(C(c2ccc(F)cc2)c2ccc(F)cc2)[C@H](C)CN1c1cc(=O)n(C)c2ccc(C#N)nc12` [Example 131, 8-((2R,5R)-4-(bis(4-fluorophenyl)methyl)-2,5-dimethylpiperazin-1-yl)-5-methyl-6-oxo-5,6-dihydro-1,5-naphthyridine-2-carbonitrile], the IC50 in assay [1] (Mus musculus, MC-38) worked out at 5900 nM.

With `CC[C@@H]1CN(C(c2ccc(F)cc2)c2ccc(F)cc2)CCN1c1cc(=O)n(C)c2ccc(C#N)nc12` [Example 170, (R)-8-(4-(bis(4-fluorophenyl)methyl)-2-ethylpiperazin-1-yl)-5-methyl-6-oxo-5,6-dihydro-1,5-naphthyridine-2-carbonitrile], in assay [1] (Mus musculus, MC-38), the IC50 worked out at 2600 nM.

One may read the EC50 as the midpoint of the concentration-response curve. In the case of `C[C@@H]1CN(c2c(C#N)c(=O)n(C)c3ccc(C#N)nc23)CCN1C(c1ccc(F)cc1)c1ccc(Cl)cn1` (stereo partly drawn) [Example 932], the EC50 in assay [4] (Homo sapiens, 24 h, anti-CD3 plus anti-CD28, 24 hours, 3 μM reference compound = 100% activation) stood at 310 nM; in assay [5] (setting [6]) it was 52 nM. The half-maximal inhibitory concentration (IC50) was found to be 150 nM in assay [2] (DGKα liposome (LIPGLO) assay) and 1200 nM in assay [3] (DGKζ liposome (LIPGLO) assay).

Regarding `C[C@@H]1CN(c2c(C#N)c(=O)n(C)c3ccc(C#N)nc23)CCN1C(c1ccc(F)cc1)c1ccc(Cl)cn1` (stereo partly drawn) [Example 933], the concentration for a half-maximal effect (EC50) in assay [4] (anti-CD3 plus anti-CD28, 24 hours, 3 μM reference compound = 100% activation) was determined as 550 nM; in assay [5] (setting [6]), 350 nM. For the same compound, the concentration for half-maximal inhibition (IC50) in assay [2] (DGKα liposome (LIPGLO) assay) amounted to 200 nM; in assay [3] (DGKζ liposome (LIPGLO) assay), 1000 nM.

For the compound `CC[C@H]1CN(C(c2ccc(F)cc2)c2ccc(Cl)cc2)[C@H](CC)CN1c1cc(=O)n(C)c2ccc(C#N)nc12` (stereo partly drawn) [Example 1031], the EC50 in assay [4] (setting [7]) worked out at 85 nM; in assay [5] (setting [8]) it was 1.3 nM. Besides, the figures for the IC50 in assay [2] (liposome (LIPGLO) assay) and in assay [3] (liposome (LIPGLO) assay) were 260 nM and 240 nM, respectively.

For the compound `CC[C@@H]1CN(c2cc(=O)n(C)c3ccc(C#N)nc23)[C@@H](C)CN1C(c1ccc(Cl)cc1)c1ccc(Cl)cc1` [Example 1099], the 50% effective concentration (EC50) came to 220 nM in assay [4] (setting [7]) and 2.5 nM in assay [5] (setting [8]). In addition, the half-maximal inhibitory concentration (IC50) is 1700 nM in assay [2] (liposome (LIPGLO) assay) and 1500 nM in assay [3] (liposome (LIPGLO) assay).

As to `CC[C@@H]1CN(c2cc(=O)n(C)c3ccc(C#N)nc23)[C@@H](C)CN1C(c1ccc(F)cc1)c1ccc(Cl)cc1` (stereo partly drawn) [Example 1100], the figures for the concentration for a half-maximal effect (EC50) in assay [4] (setting [7]) and in assay [5] (setting [8]) were 120 nM and 4.6 nM, respectively. Further, the results for the IC50 in assay [2] (liposome (LIPGLO) assay) and in assay [3] (liposome (LIPGLO) assay) were 390 nM and 370 nM, respectively.

With `CC[C@@H]1CN(c2cc(=O)n(C)c3ccc(C#N)nc23)[C@@H](C)CN1C(c1ccc(F)cc1)c1ncccc1F` (stereo partly drawn) [Example 1104], the EC50 in assay [4] (setting [7]) was found to be 300 nM; in assay [5] (setting [9]), 56 nM. Moreover, the concentration for half-maximal inhibition (IC50) in assay [2] (liposome (LIPGLO) assay) is 250 nM; in assay [3] (liposome (LIPGLO) assay), 900 nM.

On to `CC[C@@H]1CN(c2cc(=O)n(C)c3ccc(C#N)nc23)[C@@H](C)CN1C(c1ccc(F)cc1)c1ncccc1F` (stereo partly drawn) [Example 1105], for which the EC50 in assay [4] (setting [9]) is 320 nM; in assay [5] (setting [9]), 200 nM. Also, the IC50 amounted to 150 nM in assay [2] (liposome (LIPGLO) assay) and 440 nM in assay [3] (liposome (LIPGLO) assay).

For the compound `CC[C@H]1CN(C(c2ccc(Cl)cc2)c2ccc(Cl)cc2)[C@H](C)CN1c1cc(=O)n(C)c2ccc(C#N)nc12` [Example 1120], the concentration for a half-maximal effect (EC50) came to 680 nM in assay [4] (setting [7]) and 32 nM in assay [5] (setting [8]). For the same compound, the results for the IC50 in assay [2] (liposome (LIPGLO) assay) and in assay [3] (liposome (LIPGLO) assay) were 110 nM and 75 nM, respectively.

In the case of `C[C@H]1CN(C(c2ccc(Cl)cc2)c2ccc(Cl)cc2)[C@H](CO)CN1c1cc(=O)n(C)c2ccc(C#N)nc12` [Example 1152], the values for the EC50 in assay [4] (setting [7]) and in assay [5] (setting [8]) were 780 nM and 10000 nM, respectively. Moreover, the values for the IC50 in assay [2] (liposome (LIPGLO) assay) and in assay [3] (liposome (LIPGLO) assay) were 7400 nM and 24000 nM, respectively.

In the case of `COC[C@@H]1CN(c2cc(=O)n(C)c3ccc(C#N)nc23)[C@@H](C)CN1C(c1ccc(F)cc1)c1ccc(F)cc1` [Example 1155, 8-((2S,5S)-4-(bis(4-fluorophenyl)methyl)-5-(methoxymethyl)-2-methylpiperazin-1-yl)-5-methyl-6-oxo-5,6-dihydro-1,5-naphthyridine-2-carbonitrile], the results for the concentration giving a half-maximal response (EC50) in assay [4] (setting [7]) and in assay [5] (setting [8]) were 860 nM and 3.5 nM, respectively. The concentration for half-maximal inhibition (IC50) in assay [2] (liposome (LIPGLO) assay) came out at 1800 nM; in assay [3] (liposome (LIPGLO) assay), 660 nM.

With `COC[C@@H]1CN(c2cc(=O)n(C)c3ccc(C#N)nc23)[C@@H](C)CN1C(c1ccc(C)cc1)c1ccc(C)cc1` [Example 1156], the half-maximal effective concentration (EC50) in assay [4] (setting [7]) amounted to 340 nM; in assay [5] (setting [8]), 19 nM. Also, the IC50 in assay [2] (liposome (LIPGLO) assay) stood at 2500 nM; in assay [3] (liposome (LIPGLO) assay) it was 440 nM.

Regarding `CCOC[C@@H]1CN(c2cc(=O)n(C)c3ccc(C#N)nc23)[C@@H](C)CN1C(c1ccc(F)cc1)c1ccc(F)cc1` [Example 1164, 8-((2S,5S)-4-(bis(4-fluorophenyl)methyl)-5-(ethoxymethyl)-2-methylpiperazin-1-yl)-5-methyl-6-oxo-5,6-dihydro-1,5-naphthyridine-2-carbonitrile], the 50% effective concentration (EC50) in assay [4] (setting [7]) worked out at 340 nM; in assay [5] (setting [8]), 17 nM. Besides, the IC50 in assay [2] (liposome (LIPGLO) assay) stood at 18000 nM; in assay [3] (liposome (LIPGLO) assay), 670 nM.

Regarding `C[C@H]1CN(C(c2ccc(F)cc2)c2ccc(F)cc2)[C@H](CN2CCOCC2)CN1c1cc(=O)n(C)c2ccc(C#N)nc12` [Example 1167, 8-((2S,5R)-4-(bis(4-fluorophenyl)methyl)-2-methyl-5-(morpholinomethyl)piperazin-1-yl)-5-methyl-6-oxo-5,6-dihydro-1,5-naphthyridine-2-carbonitrile], the concentration giving a half-maximal response (EC50) worked out at 970 nM in assay [4] (setting [7]) and 47 nM in assay [5] (setting [8]). Besides, the concentration for half-maximal inhibition (IC50) in assay [2] (liposome (LIPGLO) assay) is 50000 nM; in assay [3] (liposome (LIPGLO) assay), 6600 nM.
